Results reported in PubChem BioAssay AID2060896 (Molecular Pharmacology Branch, DTP, NCI, 2025).
One block for each compound: values may come before it.

Test system: 941728-121-R-J1-PDC complex spheroid viability
Assay: Anticancer human tumor 941728-121-R-J1-PDC patient-derived lung adenocarcinoma cell line growth inhibition [RAS]
Details: for IC50: curve of first compound; for viability, T/C: stronger effect = lower value
Procedure, shortened: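 Multi-cell-type spheroids: tumor cells plus HUVEC endothelial cells and mesenchymal stem cells. RAS-pathway inhibitors were combined with targeted agents, each dosed in half-log steps down from clinical Cmax, or from 10 microM when Cmax was unknown.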

[1] = second compound 0.000949 µM, first compound 0.0316 µM
[2] = second compound 0.000949 µM, first compound 0.1 µM
[3] = second compound 0.000949 µM, first compound 0.316 µM
[4] = second compound 0.000949 µM, first compound 1 µM
[5] = second compound 0.003 µM, first compound 0.0316 µM
[6] = second compound 0.003 µM, first compound 0.1 µM
[7] = second compound 0.003 µM, first compound 0.316 µM
[8] = second compound 0.003 µM, first compound 1 µM
[9] = second compound 0.00949 µM, first compound 0.0316 µM
[10] = second compound 0.00949 µM, first compound 0.1 µM
[11] = second compound 0.00949 µM, first compound 0.316 µM
[12] = second compound 0.00949 µM, first compound 1 µM
[13] = second compound 0.03 µM, first compound 0.0316 µM
[14] = second compound 0.03 µM, first compound 0.1 µM
[15] = second compound 0.03 µM, first compound 0.316 µM
[16] = second compound 0.03 µM, first compound 1 µM
[17] = second compound 0.0949 µM, first compound 0.0316 µM
[18] = second compound 0.0949 µM, first compound 0.1 µM
[19] = second compound 0.0949 µM, first compound 0.316 µM
[20] = second compound 0.0949 µM, first compound 1 µM
[21] = second compound 0.3 µM, first compound 0.0316 µM
[22] = second compound 0.3 µM, first compound 0.1 µM
[23] = second compound 0.3 µM, first compound 0.316 µM
[24] = second compound 0.3 µM, first compound 1 µM
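Note: spheroids exposed to compounds for 7 days before readout.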
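Throughout, for viability, T/C: 100% = DMSO vehicle control viability.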

IC50 (second compound 0.000949 µM): < 31.6 nM
IC50 (second compound 0.003 µM): < 31.6 nM
IC50 (second compound 0.00949 µM): < 31.6 nM
IC50 (second compound 0.03 µM): < 31.6 nM
IC50 (second compound 0.0949 µM): < 31.6 nM
IC50 (second compound 0.3 µM): < 31.6 nM
Structure (SMILES): CC(=O)OC12COC1CC(O)C1(C)C(=O)C(O)C3=C(C)C(OC(=O)C(O)C(NC(=O)OC(C)(C)C)c4ccccc4)CC(O)(C(OC(=O)c4ccccc4)C21)C3(C)C (stereo unspecified) + CCn1c(-c2cc(N3CCN(C)CC3)cnc2C(C)OC)c2c3cc(ccc31)-c1csc(n1)CC(NC(=O)C1CC1C)C(=O)N1CCCC(N1)C(=O)OCC(C)(C)C2
viability, T/C [1]: 21.7%
viability, T/C [2]: 21.4%
viability, T/C [3]: 16.5%
viability, T/C [4]: 19.6%
viability, T/C (second compound 0.000949 µM, first compound 3.16 µM): 21.3%
viability, T/C (second compound 0.000949 µM, first compound 10 µM): 16.5%
viability, T/C [5]: 15.3%
viability, T/C [6]: 16.9%
viability, T/C [7]: 12.5%
viability, T/C [8]: 13.8%
viability, T/C (second compound 0.003 µM, first compound 3.16 µM): 13.4%
viability, T/C (second compound 0.003 µM, first compound 10 µM): 11.2%
viability, T/C [9]: 13.5%
viability, T/C [10]: 9.99%
viability, T/C [11]: 11.2%
viability, T/C [12]: 9.23%
viability, T/C (second compound 0.00949 µM, first compound 3.16 µM): 10.8%
viability, T/C (second compound 0.00949 µM, first compound 10 µM): 10.2%
viability, T/C [13]: 10.2%
viability, T/C [14]: 9.9%
viability, T/C [15]: 9.46%
viability, T/C [16]: 9.75%
viability, T/C (second compound 0.03 µM, first compound 3.16 µM): 7.17%
viability, T/C (second compound 0.03 µM, first compound 10 µM): 11.4%
viability, T/C [17]: 10.4%
viability, T/C [18]: 11%
viability, T/C [19]: 9.54%
viability, T/C [20]: 8.5%
viability, T/C (second compound 0.0949 µM, first compound 3.16 µM): 8.8%
viability, T/C (second compound 0.0949 µM, first compound 10 µM): 9.11%
viability, T/C [21]: 9.41%
viability, T/C [22]: 9.25%
viability, T/C [23]: 8.94%
viability, T/C [24]: 9.02%
viability, T/C (second compound 0.3 µM, first compound 3.16 µM): 7.68%
viability, T/C (second compound 0.3 µM, first compound 10 µM): 9.8%

IC50 (second compound 0.000949 µM): < 0.949 nM
IC50 (second compound 0.003 µM): < 0.949 nM
IC50 (second compound 0.00949 µM): < 0.949 nM
IC50 (second compound 0.03 µM): < 0.949 nM
IC50 (second compound 0.0949 µM): < 0.949 nM
IC50 (second compound 0.3 µM): < 0.949 nM
Structure (SMILES): CCc1c2c(nc3ccc(O)cc13)-c1cc3c(c(=O)n1C2)COC(=O)[C@]3(O)CC + CCn1c(-c2cc(N3CCN(C)CC3)cnc2C(C)OC)c2c3cc(ccc31)-c1csc(n1)CC(NC(=O)C1CC1C)C(=O)N1CCCC(N1)C(=O)OCC(C)(C)C2
viability, T/C (second compound 0.000949 µM, first compound 0.000949 µM): 24.6%
viability, T/C (second compound 0.000949 µM, first compound 0.003 µM): 24.4%
viability, T/C (second compound 0.000949 µM, first compound 0.00949 µM): 19.9%
viability, T/C (second compound 0.000949 µM, first compound 0.03 µM): 20.5%
viability, T/C (second compound 0.000949 µM, first compound 0.0949 µM): 18.1%
viability, T/C (second compound 0.000949 µM, first compound 0.3 µM): 9.95%
viability, T/C (second compound 0.003 µM, first compound 0.000949 µM): 25.8%
viability, T/C (second compound 0.003 µM, first compound 0.003 µM): 16.7%
viability, T/C (second compound 0.003 µM, first compound 0.00949 µM): 12.8%
viability, T/C (second compound 0.003 µM, first compound 0.03 µM): 13.4%
viability, T/C (second compound 0.003 µM, first compound 0.0949 µM): 10.3%
viability, T/C (second compound 0.003 µM, first compound 0.3 µM): 5.76%
viability, T/C (second compound 0.00949 µM, first compound 0.000949 µM): 17.3%
viability, T/C (second compound 0.00949 µM, first compound 0.003 µM): 10.6%
viability, T/C (second compound 0.00949 µM, first compound 0.00949 µM): 13.3%
viability, T/C (second compound 0.00949 µM, first compound 0.03 µM): 10.5%
viability, T/C (second compound 0.00949 µM, first compound 0.0949 µM): 7.7%
viability, T/C (second compound 0.00949 µM, first compound 0.3 µM): 4.19%
viability, T/C (second compound 0.03 µM, first compound 0.000949 µM): 13.7%
viability, T/C (second compound 0.03 µM, first compound 0.003 µM): 14.1%
viability, T/C (second compound 0.03 µM, first compound 0.00949 µM): 9.58%
viability, T/C (second compound 0.03 µM, first compound 0.03 µM): 8.62%
viability, T/C (second compound 0.03 µM, first compound 0.0949 µM): 5.46%
viability, T/C (second compound 0.03 µM, first compound 0.3 µM): 4.56%
viability, T/C (second compound 0.0949 µM, first compound 0.000949 µM): 12.9%
viability, T/C (second compound 0.0949 µM, first compound 0.003 µM): 11.2%
viability, T/C (second compound 0.0949 µM, first compound 0.00949 µM): 10.6%
viability, T/C (second compound 0.0949 µM, first compound 0.03 µM): 8.43%
viability, T/C (second compound 0.0949 µM, first compound 0.0949 µM): 5.36%
viability, T/C (second compound 0.0949 µM, first compound 0.3 µM): 4.56%
viability, T/C (second compound 0.3 µM, first compound 0.000949 µM): 10.8%
viability, T/C (second compound 0.3 µM, first compound 0.003 µM): 10.7%
viability, T/C (second compound 0.3 µM, first compound 0.00949 µM): 9.64%
viability, T/C (second compound 0.3 µM, first compound 0.03 µM): 10.6%
viability, T/C (second compound 0.3 µM, first compound 0.0949 µM): 5.65%
viability, T/C (second compound 0.3 µM, first compound 0.3 µM): 3.94%

IC50 (second compound 0.000949 µM): < 3.16 nM
IC50 (second compound 0.003 µM): < 3.16 nM
IC50 (second compound 0.00949 µM): < 3.16 nM
IC50 (second compound 0.03 µM): < 3.16 nM
IC50 (second compound 0.0949 µM): < 3.16 nM
IC50 (second compound 0.3 µM): < 3.16 nM
Structure (SMILES): Nc1ccn(C2OC(CO)C(O)C2(F)F)c(=O)n1 (stereo unspecified) + CCn1c(-c2cc(N3CCN(C)CC3)cnc2C(C)OC)c2c3cc(ccc31)-c1csc(n1)CC(NC(=O)C1CC1C)C(=O)N1CCCC(N1)C(=O)OCC(C)(C)C2
viability, T/C (second compound 0.000949 µM, first compound 0.00316 µM): 25.2%
viability, T/C (second compound 0.000949 µM, first compound 0.01 µM): 25.2%
viability, T/C [1]: 16.8%
viability, T/C [2]: 21.1%
viability, T/C [3]: 21%
viability, T/C [4]: 17.1%
viability, T/C (second compound 0.003 µM, first compound 0.00316 µM): 18.2%
viability, T/C (second compound 0.003 µM, first compound 0.01 µM): 16.7%
viability, T/C [5]: 13.1%
viability, T/C [6]: 15.3%
viability, T/C [7]: 16.6%
viability, T/C [8]: 12.2%
viability, T/C (second compound 0.00949 µM, first compound 0.00316 µM): 13.2%
viability, T/C (second compound 0.00949 µM, first compound 0.01 µM): 11.3%
viability, T/C [9]: 12.9%
viability, T/C [10]: 12.9%
viability, T/C [11]: 12.4%
viability, T/C [12]: 10.5%
viability, T/C (second compound 0.03 µM, first compound 0.00316 µM): 12.4%
viability, T/C (second compound 0.03 µM, first compound 0.01 µM): 11.8%
viability, T/C [13]: 10.8%
viability, T/C [14]: 10.7%
viability, T/C [15]: 10.8%
viability, T/C [16]: 10.1%
viability, T/C (second compound 0.0949 µM, first compound 0.00316 µM): 13.3%
viability, T/C (second compound 0.0949 µM, first compound 0.01 µM): 10.6%
viability, T/C [17]: 12.8%
viability, T/C [18]: 11%
viability, T/C [19]: 9.57%
viability, T/C [20]: 11%
viability, T/C (second compound 0.3 µM, first compound 0.00316 µM): 10.7%
viability, T/C (second compound 0.3 µM, first compound 0.01 µM): 10.2%
viability, T/C [21]: 11%
viability, T/C [22]: 10.4%
viability, T/C [23]: 10.2%
viability, T/C [24]: 11.7%
